In patent US7972645B2, “Dioscorea extracts for enhancing immune system” (Academia Sinica, priority 2003, dated 2011):

Tested on: NF-κB-inducible ELAM-1 composite promoter
Experiment: NF-κB-inducible ELAM-1 composite promoter reporter (SEAP) assay in transfected B16 melanoma cells
Type: cell-based
Conditions: Polymyxin B 400 U
Description: Briefly, B16 melanoma cells were transfected with a vector carrying the human secreted embryonic alkaline phosphatase (SEAP) gene, whose expression is under the control of a NF-κB-inducible ELAM-1 composite promoter, using a standard method for reporter (SEAP) assay. B16 melanoma cells were transfected with the NF-kB-inducible reporter plasmid pNiFty-SEAP (InvivoGen) in the presence of lipofectin (Invitrogen) for 24 hours. The SEAP secreted into medium was measured according to the manufacturer's instructions (Phospha-Light™ System, Applied Biosystems).
The transfected cells were then incubated with DsCE-I before the chemiluminescent reporter gene assays were conducted. It was known that LPS increased the activity of NF-κB and p38MAPK was involved in the LPS-induced activation. Therefore, LPS (0.1 μg/ml) was used as a positive control (Group A) and the corresponding […] was normalized as 100%. To illustrate the specificity, the effects of inhibitors of the LPS-induced activation were also examined. These inhibitors included SB203580 (“SB,” a p38MAPK inhibitor), PDTC (“PD,” a NF-κB inhibitor), and Polymyxin B (“PB,” an LPS-binding antibiotic). The solvent used to prepare the reagents was used as a negative control (Group J).

## Polymyxin B
DsCE-I 100 μg/ml
  Inhibition of DsCE-I-induced activation (in words): only partially inhibited
LPS 0.1 μg/ml
  Inhibition of LPS-induced activation (in words): inhibited LPS-induced activation completely
